Assay results as given in patent US20130102645A1, “Methods and compositions for controlling vascularization in ophthalmological and dermatological diseases” (AVIENNE PHARMACEUTICALS GMBH, priority 2011, published 2013).
≈ marks a conversion by molar mass, not a printed value. Entries after “also recorded” stand apart in the source; their conditions may differ. Where two headings read alike, the source gives them in different places.

Experiments:
[1] = test system: SAOS-2, Hela, HT29, U87MG and SK-N-DZ cells; experiment: cytotoxic activity in cancer cell lines by cell numbers; assay type: cell-based; conditions: up to 20 μM; uncoated dishes or coated with vitronectin or fibrinogen
Protocol: For example, cytotoxic activity of AV-398 was determined in several cancer cell lines (SAOS-2, Hela, HT29, U87MG and SK-N-DZ cells) by assessing cell numbers after treating cell lines with varying concentration of up to 20 μM. Experiments were performed either on uncoated dishes, or on dishes coated with vitronectin or fibrinogen. In addition, tumor cell lines were treated in parallel with echistatin (Gan Z R et al (1998)). […] Similar data were recently published showing cytotoxic activity also only against MDA-MB-435 breast cancer cells (Dayam R et al, 2006).

[2] = rat pharmacokinetics, plasma LC-MS/MS; assay type: in vivo; conditions: for half-life: iv, 5 mg/kg
Protocol: (§1) Preliminary pharmacokinetic and preliminary toxicology information was obtained following a single intravenous dose of 5 mg/kg and a single 20 mg/kg PO dose to male Sprague-Dawley rats for 5 separate test articles. AV-398 was dosed both via the IV and PO routes. Blood was collected from the animals in Groups 1 through 10 for pharmacokinetic analysis. Approximately 0.25 mL of blood was collected in potassium EDTA tubes via the jugular cannulae for all time points. For all IV treated animals, blood was collected at 9 time points (0.083, 0.25, 0.5, 1, 2, 4, 6, 8 and 12 hour post-dose) via the jugular cannulae. For all animals treated by oral gavage, blood was collected at 7 time points (0.5, 1, 2, 4, 6, 8 and 12 hour post-dose) via the jugular cannulae. At the final time point additional blood volume was collected in a separate EDTA tube from each animal for clinical pathology evaluation (including serum chemistry and hematology). Predose samples were collected from the extra animals which were not assigned to any of the dose groups. The plasma samples were analyzed by LC-MS/MS to determine the plasma concentrations of drug candidates. Pharmacokinetic analysis of the plasma concentration data was conducted using non-compartmental analysis with WinNonlin Version 4.1. […] The oral absorption of AV-398 when administered at 20 mg/kg dose as a suspension was low at an average of 8.4%.

[3] = test system: HUVEC; experiment: growth inhibition of HUVEC cell lines; assay type: cell-based; conditions: Homo sapiens, read-out: IC50 for growth inhibition of HUVECs
Protocol: For proliferation assays, cells are seeded in 24- to 96-well plates in medium at different concentrations according to the cell type. […] Cells are then trypsinized and collected for direct counting. Results are plotted and expressed as means (±SE) for each compound and for a given concentration.
In Table 2, the group “R” is defined as follows: […]

[4] = rat clinical pathology (serum chemistry and hematology); assay type: in vivo; conditions: rats, single 5 mg/kg IV or 20 mg/kg PO
Protocol: as §1

[5] = target: αvβ3-receptor (Homo sapiens, UniProt P05106+P06756); conditions: cited from earlier work
Sequence of αvβ3-receptor (P06756 31-889 limits assumed): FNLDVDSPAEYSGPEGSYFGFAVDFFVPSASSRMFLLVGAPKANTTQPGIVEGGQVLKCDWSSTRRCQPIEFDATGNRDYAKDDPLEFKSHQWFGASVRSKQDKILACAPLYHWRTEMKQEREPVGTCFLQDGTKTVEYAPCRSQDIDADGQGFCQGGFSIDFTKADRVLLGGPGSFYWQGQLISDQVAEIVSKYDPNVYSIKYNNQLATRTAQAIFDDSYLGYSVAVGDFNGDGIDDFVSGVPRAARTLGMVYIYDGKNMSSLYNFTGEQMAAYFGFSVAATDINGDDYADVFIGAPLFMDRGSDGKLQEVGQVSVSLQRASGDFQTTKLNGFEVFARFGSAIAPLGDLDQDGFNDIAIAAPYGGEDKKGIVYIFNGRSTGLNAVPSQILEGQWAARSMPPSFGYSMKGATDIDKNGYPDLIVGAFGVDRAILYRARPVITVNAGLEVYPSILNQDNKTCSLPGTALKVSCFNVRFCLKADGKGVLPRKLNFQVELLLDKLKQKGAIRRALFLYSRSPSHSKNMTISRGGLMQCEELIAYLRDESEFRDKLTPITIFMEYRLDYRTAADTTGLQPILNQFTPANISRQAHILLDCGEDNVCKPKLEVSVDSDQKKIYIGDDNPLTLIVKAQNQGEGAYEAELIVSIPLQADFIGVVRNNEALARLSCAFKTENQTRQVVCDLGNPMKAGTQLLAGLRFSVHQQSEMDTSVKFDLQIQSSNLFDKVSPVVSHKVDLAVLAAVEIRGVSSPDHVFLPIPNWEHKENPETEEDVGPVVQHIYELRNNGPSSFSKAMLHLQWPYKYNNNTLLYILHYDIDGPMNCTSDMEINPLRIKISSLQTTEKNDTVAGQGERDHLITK
Sequence of αvβ3-receptor (P06756 891-1048 partner limits assumed): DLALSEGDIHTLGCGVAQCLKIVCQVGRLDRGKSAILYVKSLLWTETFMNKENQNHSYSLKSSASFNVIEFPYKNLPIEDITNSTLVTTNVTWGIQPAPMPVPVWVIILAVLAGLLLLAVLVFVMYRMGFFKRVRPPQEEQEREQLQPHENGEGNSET
Sequence of αvβ3-receptor (P05106 27-788): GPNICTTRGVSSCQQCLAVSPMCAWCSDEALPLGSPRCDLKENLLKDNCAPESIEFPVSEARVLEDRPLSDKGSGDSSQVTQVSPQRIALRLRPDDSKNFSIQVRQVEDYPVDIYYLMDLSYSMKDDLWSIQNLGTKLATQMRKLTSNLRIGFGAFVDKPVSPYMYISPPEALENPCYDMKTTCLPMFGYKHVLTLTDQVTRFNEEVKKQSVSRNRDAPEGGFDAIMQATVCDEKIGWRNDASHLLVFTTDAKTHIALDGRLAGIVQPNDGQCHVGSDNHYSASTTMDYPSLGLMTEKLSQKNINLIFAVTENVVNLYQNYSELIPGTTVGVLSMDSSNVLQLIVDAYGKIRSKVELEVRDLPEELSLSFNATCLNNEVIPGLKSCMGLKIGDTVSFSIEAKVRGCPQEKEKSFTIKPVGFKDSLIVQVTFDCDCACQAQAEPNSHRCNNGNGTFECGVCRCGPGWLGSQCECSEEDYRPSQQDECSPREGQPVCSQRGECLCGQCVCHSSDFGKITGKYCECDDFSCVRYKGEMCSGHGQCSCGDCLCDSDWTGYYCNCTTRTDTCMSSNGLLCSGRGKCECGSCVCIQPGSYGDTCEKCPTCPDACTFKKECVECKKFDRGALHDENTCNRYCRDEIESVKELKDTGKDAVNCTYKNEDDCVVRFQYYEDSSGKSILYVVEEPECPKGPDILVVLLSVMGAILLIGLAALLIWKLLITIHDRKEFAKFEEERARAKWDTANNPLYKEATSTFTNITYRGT

[6] = solubility; assay type: physicochemical
Protocol: Sufficiently concentrated solutions are readily achievable. AV-398 is soluble in PBS 7.4 at 100 μg/ml, in Tris.Cl buffer at 1 mg/ml, and as a sodium salt at least up to 20 mg/ml.

[7] = test system: endothelial cell lines; experiment: proliferation assay of primary endothelial cells, direct cell counting; assay type: cell-based, human
Protocol: Primary endothelial cell lines (HMVEC-dLyAd—human dermal lymphatic microvascular endothelial cells (EC), dermal blood microvascular EC, HMVEC-LB lung blood microvascular EC, HMVEC-C cardiac human microvascular endothelial cells and MVEC-d—dermal microvascular EC) are from Cambrex Bio Science (Cambrex Bio Science Walkersville Inc., Walkersville, Md., USA). Cell lines are cultured according to the manufacturer's recommendations.
For proliferation assays, cells are seeded in 24- to 96-well plates in medium at different concentrations according to the cell type. After 24 hours, the medium is removed and replaced with fresh medium containing increasing concentrations of the compounds. The plates are then incubated for additional 24 to 72 hours, depending on the type of the experiment. Cells are then trypsinized and collected for direct counting. Results are plotted and expressed as means (±SE) for each compound and for a given concentration.

[8] = test system: MDA-MB-435; experiment: cytotoxic activity in breast cancer cell line; assay type: cell-based; conditions: up to 20 μM
[9] = test system: ocular angiogenesis; experiment: conjunctival incision angiogenesis model in pigs, eye drops; assay type: in vivo, pig
From the text: AV-398 inhibits ocular angiogenesis in vivo in a widely accepted large animal model. The cornea is an ideal model system for angiogenesis in general, and more specifically for angiogenesis of the eye. The corneal angiogenesis assay is one of the most widely used in vivo assay for the evaluation of factors influencing angiogenesis (Auerbach R, 2003, Thiele W, 2006). One reason that makes the cornea an ideal object for observing neovascularization is its normal lack of vascularity, maintained by different molecular mechanisms. New vessels can easily be identified by visual inspection alone and quantified with the help of computerized image analysis programs. The effect of an ophthalmological formulation of AV-398 after a conjunctival insult with subsequent angiogenesis in a large animal model was investigated in order to test whether the in vitro data, such as anti-proliferative effects on human endothelial cells, could be reproduced in vivo.
Six white pigs weighing 10 to 15 kg were included. First, corneae and conjunctivae were anaesthesized by local application of lidocaine 4%. Then, an incision of 0.5 cm length through the conjunctival tunica sclerae to the substantia propria was placed in parallel to the dorsal corneal limbus at a distance of approximately 2 mm. The animals were treated as follows. The right eye of each animal was treated with a commercially available ocular eye drop solution (PROTAGENT® EYE DROPS 2%) containing 100 μg/ml of AV-398. The corresponding left eyes of each animal were control-treated with the same eye drop solution alone. Two droplets (˜100 μl) of AV-398 were applied in the right eye immediately after setting of the incision and two droplets of the ophthalmologic carrier formula as negative control in the left eye of the same animal. Animals received AV-398 as well as the eye drops 0.5 hrs post incision and the same treatment at 3 hrs post incision.

[10] = test system: chorioallantoic membrane (CAM) of the developing chicken embryo; experiment: chicken egg chorioallantoic membrane (CAM) assay; assay type: in vivo; conditions: applied on CAM day 6 p.f., incubated until day 11 p.f.
From the text: Local application of AV-398 inhibits in vivo angiogenesis as evidenced by the chicken egg chorioallantoic membrane model. The chorioallantoic membrane (CAM) of the developing chicken embryo serves as an alternative to the traditional mammalian in vivo models, and further corroborates the findings in pigs described above and has clear relevance for the treatment e.g. dermatological indications linked to neoangiogenesis. AV-398 was applied over 5 days.
Eggs were opened on day 6 post fertilization (p.f.). Substances (200 μl respectively) were applied on the CAM on day 6 p.f. and incubated until day 11 p.f. As a vehicle control, 1% DMSO in PBS (phosphate-buffered saline solution pH 7.4) without AV-398 was used. Eggs were inspected daily by stereo-microscopy and pictures were taken (6× magnification).

[11] = test system: endothelial cells; conditions: read-out: IC50, colony-forming ability of endothelial cells; cited from earlier work

CCOc1cc(C=C2S/C(=N/c3ccc(C(=O)O)cc3)N(C)C2=O)ccc1O (stereo in doubt) [AV-398, 4-({5-[(E)-1-(3-ethoxy-4-hydroxyphenyl)methylidene]-3-methyl-4-oxo-1,3-thiazolan-2-yliden}amino)benzoic acid]
effects on cancer cell lines (cytotoxic activity) [1]: no meaningful effects
oral absorption (average) ([2]; 20 mg/kg as a suspension): 8.4%
peak plasma concentration (average) ([2]; IV 5 mg/kg): 1736.56 ng/mL
time of peak plasma concentration ([2]; IV 5 mg/kg): 0.083 h
peak plasma concentration (mean) ([2]; PO 20 mg/kg suspension): 54.07 ng/mL
AUC(0-inf) ([2]; male, Sprague-Dawley, plasma, IV 5 mg/kg): 690 ng·h/mL
AUC(0-t) ([2]; male, Sprague-Dawley, plasma, PO 20 mg/kg suspension, read-out: average AUC (0-12 hr)): 234 ng·h/mL
half-life ([2]; male, Sprague-Dawley, plasma, IV 5 mg/kg, read-out: Terminal plasma half-life (converted)): 30 min
half-life ([2]; male, Sprague-Dawley, plasma, IV 5 mg/kg, read-out: terminal plasma half-life (range)): 10.8 to 40.8 min
half-life ([2]; male, Sprague-Dawley, plasma, after intravenous administration, read-out: terminal plasma half-life (converted)): 30 min
IC50 [3]: < 300 nM
effects on hematological and serum chemistry parameters [4]: no side-related effects
αυβ3 binding affinity [5]: 240 nM
solubility ([6]; Tris.Cl buffer, aqueous buffer): 1000 µg/mL (≈ 2510 µM)
solubility ([6]; as a sodium salt): ≥ 20000 µg/mL
solubility ([6]; pH 7.4, aqueous buffer, PBS 7.4): 100 µg/mL (≈ 251 µM)
IC50 ([7]; Homo sapiens, Endothelial cell, endothelial cells (lung, lymphatics, umbilical), FIGS. 1-3, read-out: Half-maximal growth inhibition): 400 nM
IC50 ([7]; Homo sapiens, endothelial cell lines, read-out: 50% inhibitory concentration): 200 to 500 nM
activity against breast cancer cell line MDA-MB-435 [8]: limited activity
neoangiogenesis on conjunctivae vs control-treated eyes ([9]; eye drops 100 μg/ml, right eye, left eye vehicle): diminished neoangiogenesis
bleeding surrounding the incision ([9]; immediately after treatment): marked diffuse bleeding
local or systemic adverse side effects ([9]; three weeks post incision): no local or systemic adverse side effects
vascularization of CAM / chicken embryo vs vehicle control [10]: markedly decreased vascularization; also recorded: significant reduction of vascularization

CC(C)[C@H]1C(=O)N[C@@H](CCCN=C(N)N)C(=O)NCC(=O)N[C@@H](CC(=O)O)C(=O)N[C@H](Cc2ccccc2)C(=O)N1C [Cilengitide, cycloL-Arg-Gly-L-Asp-D-Phe-N [Me] L-Val]
IC50 [11]: 6700 ± 1200 nM

echistatin [reference compound]
IC50 ([7]; endothelial cells (lung, lymphatics, umbilical), FIGS. 1-3, read-out: Half-maximal growth inhibition): 800 nM
